Assay results published in patent US11117905B2, “Bisaryl heterocycles as NRF2 activators” (GLAXOSMITHKLINE INTELLECTUAL PROPERTY DEVELOPMENT LIMITED, priority 2016, dated 2021).

Test system: NQO1 specific enzyme activity in BEAS-2B cells (marker for NRF2 activation)
Experiment: BEAS-2B NQO1 MTT Assay
Format: cell-based
Details: Homo sapiens, BEAS-2B, 48 h, NQO1 specific activity induction, 48 hours with compound
Source text: NAD(P)H:quinone oxidoreductase 1 (NQO1), also called DT diaphorase, is a homodimeric FAD-containing enzyme that catalyzes obligatory NAD(P)H-dependent two-electron reductions of quinones and protects cells against the toxic and neoplastic effects of free radicals and reactive oxygen species arising from one-electron reductions. The transcription of NQO1 is finely regulated by NRF2, and thus NQO1 activity is a good marker for NRF2 activation. On day one, frozen BEAS-2B cells (ATCC) were thawed in a water bath, counted, and re-suspended at a concentration of 250,000 cells/mL. Fifty microliters of cells were plated in 384 well black clear-bottomed plates. Plates were incubated at 37° C., 5% CO2 overnight. On day two, plates were centrifuged and 50 nL of compound or controls were added to the cells. Plates were then incubated at 37° C., 5% CO2 for 48 hours. On day four, medium was aspirated from the plate and crude cell lysates were made by adding 13 uL of 1× Cell Signaling Technologies lysis buffer with 1 Complete, Mini, EDTA-free Protease Inhibitor Tablet (Roche) for each 10 mL of lysis buffer. After lysis plates were incubated for 20 minutes at room temperature. Two microliters of lysate were removed for use in Cell Titer Glo assay (Promega) and MTT cocktail was prepared (Prochaska et. al. 1998) for measurement of NQO1 activity. Fifty microliters of MTT cocktail is added to each well, plate is centrifuged, and analyzed on an Envision plate reader (Perkin Elmer) using Absorbance 570 nm label for 30 minutes. Product formation was measured kinetically and the pEC50 of NQO1 specific activity induction was calculated by plotting the change in absorbance (Delta OD/min) versus the log of compound concentration followed by 3-parameter fitting.
pEC50 is the negative log of the EC50.
EC50s<1 nM (+++++), EC50s 1 nM-10 nM (++++), EC50s 10 nM-100 nM (+++), EC50s 100 nM-1 uM (++), EC50s 1 uM-10 uM (+), EC50s>10 uM (−), or were not determined (ND).

| Compound | EC50 |
| --- | --- |
| CC[C@@H]1CN(Cc2nc([C@@H](c3ccc4c(nnn4CC)c3C)C(C)(C)C(=O)Nc3cccnc3)sc2C)S(=O)(=O)c2cnccc2O1 [Example 28, (S)-3-(4-(((R)-4-Ethyl-1,1-dioxido-3,4-dihydro-2H-pyrido[4,3-b][1,4,5]oxathiazepin-2-yl)methyl)-5-methylthiazol-2-yl)-3-(1-ethyl-4-methyl-1H-benzo[d][1,2,3]triazol-5-yl)-2,2-dimethyl-N-(pyridin-3-yl)propanamide] | 100 to 1000 nM |
| CC[C@@H]1CN(Cc2nc([C@@H](c3ccc4c(nnn4CC)c3C)C(C)(C)C(=O)O)sc2C)S(=O)(=O)c2ncccc2O1 [Example 29, (S)-3-(4-(((R)-4-Ethyl-1,1-dioxido-3,4-dihydro-2H-pyrido[3,2-b][1,4,5]oxathiazepin-2-yl)methyl)-5-methylthiazol-2-yl)-3-(1-ethyl-4-methyl-1H-benzo[d][1,2,3]triazol-5-yl)-2,2-dimethylpropanoic Acid] | 1 to 10 nM |
| CC[C@@H]1CN(Cc2nc([C@@H](c3ccc4c(nnn4CC)c3C)C(C)(C)C(=O)Nc3cccnc3)sc2C)S(=O)(=O)c2ncccc2O1 [Example 30, (S)-3-(4-(((R)-4-Ethyl-1,1-dioxido-3,4-dihydro-2H-pyrido[3,2-b][1,4,5]oxathiazepin-2-yl)methyl)-5-methylthiazol-2-yl)-3-(1-ethyl-4-methyl-1H-benzo[d][1,2,3]triazol-5-yl)-2,2-dimethyl-N-(pyridin-3-yl)propanamide] | 100 to 1000 nM |
| CCn1nnc2c(C)c([C@H](c3cc(CN4C[C@@H](C)Cc5ncccc5S4(=O)=O)n(C)n3)C(C)(C)C(=O)O)ccc21 [Example 31, (S)-3-(1-Ethyl-4-methyl-1H-benzo[d][1,2,3]triazol-5-yl)-2,2-dimethyl-3-(1-methyl-5-(((S)-4-methyl-1,1-dioxido-4,5-dihydropyrido[2,3-f][1,2]thiazepin-2(3H)-yl)methyl)-1H-pyrazol-3-yl)propanoic Acid] | 100 to 1000 nM |
| CCn1nnc2c(C)c([C@H](c3cc(CN4CCC[C@H](n5cccn5)C4)c(C)s3)C(C)(C)C(=O)O)ccc21 [Example 32, (S)-3-(4-(((S)-3-(1H-Pyrazol-1-yl)piperidin-1-yl)methyl)-5-methylthiophen-2-yl)-3-(1-ethyl-4-methyl-1H-benzo[d][1,2,3]triazol-5-yl)-2,2-dimethylpropanoic acid] | 100 to 1000 nM |
| CC[C@H]1Cc2ncccc2S(=O)(=O)N(Cc2nc([C@@H](c3ccc4c(nnn4CC)c3C)C(C)(C)C(=O)O)sc2C)C1 [Example 33, (S)-3-(4-(((S)-4-Ethyl-1,1-dioxido-4,5-dihydropyrido[2,3-f][1,2]thiazepin-2(3H)-yl)methyl)-5-methylthiazol-2-yl)-3-(1-ethyl-4-methyl-1H-benzo[d][1,2,3]triazol-5-yl)-2,2-dimethylpropanoic Acid] | < 1 nM |
| CC[C@H]1Cc2ncccc2S(=O)(=O)N(Cc2nc([C@@H](c3ccc4c(nnn4CC)c3C)C(C)(C)C(=O)Nc3cccnc3)sc2C)C1 [Example 34, (S)-3-(4-(((S)-4-Ethyl-1,1-dioxido-4,5-dihydropyrido[2,3-f][1,2]thiazepin-2(3H)-yl)methyl)-5-methylthiazol-2-yl)-3-(1-ethyl-4-methyl-1H-benzo[d][1,2,3]triazol-5-yl)-2,2-dimethyl-N-(pyridin-3-yl)propanamide] | 100 to 1000 nM |
| CC[C@@H]1CN(Cc2cc([C@H](c3ccc4c(nnn4CC)c3C)C(C)(C)C(=O)O)sc2Cl)S(=O)(=O)c2cnccc2O1 [Example 36, (R)-3-(5-Chloro-4-(((R)-4-ethyl-1,1-dioxido-3,4-dihydro-2H-pyrido[4,3-b][1,4,5]oxathiazepin-2-yl)methyl)thiophen-2-yl)-3-(1-ethyl-4-methyl-1H-benzo[d][1,2,3]triazol-5-yl)-2,2-dimethylpropanoic Acid] | 100 to 1000 nM |
| CCn1nnc2c(C)c([C@@H](c3cc(CN4C[C@@H](C)Cc5ccc(C(F)(F)F)cc5S4(=O)=O)n(C)n3)C(C)(C)C(=O)O)ccc21 [Example 37, (R)-3-(1-Ethyl-4-methyl-1H-benzo[d][1,2,3]triazol-5-yl)-2,2-dimethyl-3-(1-methyl-5-(((S)-4-methyl-1,1-dioxido-8-(trifluoromethyl)-4,5-dihydrobenzo[f][1,2]thiazepin-2(3H)-yl)methyl)-1H-pyrazol-3-yl)propanoic Acid] | 100 to 1000 nM |
| CCn1nnc2c(C)c([C@H](c3cc(CN4C[C@@H](C)Cc5ccccc5S4(=O)=O)c(C)s3)C(C)(C)C(N)=O)ccc21 [Example 39, (S)-3-(1-Ethyl-4-methyl-1H-benzo[d][1,2,3]triazol-5-yl)-2,2-dimethyl-3-(5-methyl-4-(((S)-4-methyl-1,1-dioxido-4,5-dihydrobenzo[f][1,2]thiazepin-2(3H)-yl)methyl)thiophen-2-yl)propanamide] | 10 to 100 nM |
| CC[C@@H]1CN(Cc2cc([C@H](c3ccc4c(nnn4CC)c3F)C(C)(C)C(=O)O)sc2Cl)S(=O)(=O)c2ccccc2O1 [Example 40, (S)-3-(5-Chloro-4-(((R)-4-ethyl-1,1-dioxido-3,4-dihydro-2H-benzo[b][1,4,5]oxathiazepin-2-yl)methyl)thiophen-2-yl)-3-(1-ethyl-4-fluoro-1H-benzo[d][1,2,3]triazol-5-yl)-2,2-dimethylpropanoic Acid] | 10 to 100 nM |
| CC[C@H]1Cc2ccccc2S(=O)(=O)N(Cc2nc([C@@H](c3ccc4c(nnn4CC)c3C)C(C)(C)C(=O)O)sc2C)C1 [Example 41, (S)-3-(4-(((S)-4-Ethyl-1,1-dioxido-4,5-dihydrobenzo[f][1,2]thiazepin-2(3H)-yl)methyl)-5-methylthiazol-2-yl)-3-(1-ethyl-4-methyl-1H-benzo[d][1,2,3]triazol-5-yl)-2,2-dimethylpropanoic Acid] | < 1 nM |
| CC[C@H]1Cc2ccccc2S(=O)(=O)N(Cc2nc([C@@H](c3ccc4c(nnn4CC)c3C)C(C)(C)C(=O)Nc3cccnc3)sc2C)C1 [Example 42, (S)-3-(4-(((S)-4-Ethyl-1,1-dioxido-4,5-dihydrobenzo[f][1,2]thiazepin-2(3H)-yl)methyl)-5-methylthiazol-2-yl)-3-(1-ethyl-4-methyl-1H-benzo[d][1,2,3]triazol-5-yl)-2,2-dimethyl-N-(pyridin-3-yl)propanamide] | 10 to 100 nM |
| CCn1nnc2c(F)c([C@@H](c3cc(CN4C[C@@H](C)Cc5ccc(C(F)(F)F)cc5S4(=O)=O)c(Cl)s3)C(C)(C)C(=O)O)ccc21 [Example 43, (S)-3-(5-Chloro-4-(((S)-4-methyl-1,1-dioxido-8-(trifluoromethyl)-4,5-dihydrobenzo[f][1,2]thiazepin-2(3H)-yl)methyl)thiophen-2-yl)-3-(1-ethyl-4-fluoro-1H-benzo[d][1,2,3]triazol-5-yl)-2,2-dimethylpropanoic Acid] | 10 to 100 nM |
| CCn1nnc2c(C)c([C@H](c3nc(CN4C[C@@H](C)Cc5cc(C(F)(F)F)ccc5S4(=O)=O)c(C)s3)C(C)(C)C(=O)O)ccc21 [Example 44, (S)-3-(1-Ethyl-4-methyl-1H-benzo[d][1,2,3]triazol-5-yl)-2,2-dimethyl-3-(5-methyl-4-(((S)-4-methyl-1,1-dioxido-7-(trifluoromethyl)-4,5-dihydrobenzo[f][1,2]thiazepin-2(3H)-yl)methyl)thiazol-2-yl)propanoic Acid] | < 1 nM |
